In patent publication US4221909A, “P-Acetamidobenzoic acid salts of 9-(hydroxyalkyl) purines” (Sloan-Kettering Institute for Cancer Research, priority 1978, dated 1980):
“Also recorded” adds a separate entry of the source.

Experiments:
[1] = test system: Influenza A USSR/90(H1 N1); test: Anti-Influenza Activity (Hemadsorption Assay), Influenza A USSR/90; assay type: cell-based; settings: for inhibition: Influenza A virus, read-out: % Inhibition of Hemadsorption Foci
Protocol: (§1) Upon infection of a monolayer of tissue culture cells by influenza virus, the cell surface is altered so that guinea pig erythrocytes can be adsorbed to the cell surface. The number of foci of adsorbed cells (hemadsorption foci forming units HAFFU) is a quantitative measure of infectivity. The method is as follows.
The monolayers were subcultured in the following manner: The medium was poured off, and the monolayer washed two times with approximately 50 ml per wash of calcium and magnesium free phosphate buffered saline (PBS), (GIBCO #419) at a pH of 7.2. One ml of trypsin-EDTA solution (GIBCO #530L) containing 0.5 g trypsin (1:250) and 2.0 g EDTA/liter of Modified Puck's Saline A was added at 37° C. to each flask and dispersed over the monolayer with gentle shaking. The flasks were then placed in an incubator at 37° C. for approximately 3-5 minutes depending on the time required to dislodge the cells. Occasional shaking was required. Ten ml of planting medium was added to each flask and the cells dispersed by aspirating and expelling the suspension from the pipette. The contents of a series of flasks were pooled and the cells in the suspension were diluted with planting medium to 7-8.5×10^4 cells/ml. The planting medium consisted of the following composition: Minimum Essential Medium Eagles (MEM) with Earle's salts and HEPES buffer (GIBCO #236) supplemented by adding the following substances as specified to 87 ml of MEM:
The following day the medium was removed and replaced with fresh planting medium. The monolayers were used for experimentation when they reached a condition in which they were almost confluent (approximately 3-4 days).
(§2) When the Linbro tray HeLa cell cultures were ready for experimentation (see cells), the medium was decanted and 1 ml of maintenance medium (MEM with FCS reduced to 3%) containing the compound being tested at a given concentration was added to 4 replicate cultures within a tray.
(§3) A series of different drug concentrations ranging from 2.3 to 150 μg/ml were used. Maintenance medium alone was used for control cultures. After the administration of drug and control medium, 0.1 ml of the diluted viral suspension was added to experimental groups and infected control cultures. Saline alone was added to non-infected control cultures. The Linbro trays were then incubated at 37° C. for 18 hours, after which media in all groups was aspirated. Each culture was washed once with PBS. The saline was aspirated and 0.5 ml of a 0.4% v/v guinea pig red blood cell suspension in PBS was added to each culture well. The cultures remained at room temperature for 30 minutes after which the medium was decanted and culture washed […] with PBS to remove all but the specifically bound red cells. After the third wash, maintenance medium was added to all cultures.
(§4) A Howard Micrometer eyepiece (C8385) was inserted within the ocular of a Nikon inverted phase contrast microscope. Each culture was scanned with a 4× low paper objective and direct counts of hemadsorbed red cells were counted using the eyepiece grid as a field marker. Partial or complete fields were counted per experimental group depending on the resulting number and density of hemadsorbed cells in the infected control cultures. Magnification of 60× or 150× were chosen to obtain the best conditions for enumerating the hemadsorbed cells. Field factors were calculated for counting hemadsorption at 60× and 150×. At 60× magnification, total field count was calculated using a multiplication factor of 55.5. At 150× magnification the multiplication factor was 273. The multiplication factors of 55.5 and 273 represent the total number of fields at 60× and 150× magnifications, respectively. The number of fields counted ranged from 3 to 5 per well with 3 to 4 wells per treatment group employed (see raw data tables in results section for number of fields examined). Means and standard errors were calculated and the data was evaluated using student's t-test analysis.

[2] = test system: human peripheral blood lymphocytes; test: Mitogen Induced (PHA) Human Lymphocyte Proliferation; assay type: cell-based
[3] = test system: Influenza A Swine 1976 (Hlsw -N1); test: Inhibition of influenza virus replication, Swine 1976; assay type: cell-based
Protocol: as §1, §2, §3, §4

[4] = test system: influenza virus; test: Anti-influenza activity (summary); assay type: cell-based; settings: for number of different strains of influenza virus inhibited: concentrations ranging from 1-150 μg/ml
[5] = test system: spleen cells; test: In vitro treatment of Con A stimulated spleen cells; assay type: cell-based, mice (Balb/C); settings: compound 1 μg/ml; suboptimal Con A 5 μg/ml
From the text: The purpose of this study was to determine the effects of in vivo treatment of mice with the compounds NPT 15392 and 15410 on the subsequent activity of spleen cells isolated from these animals and evaluated in vitro for their proliferative response to the mitogen, Concanavalin A (Con A).
The following day, each group was sacrificed and the spleens removed and pooled. The spleens were minced and the cells washed in RPMI-1640 medium (Grand Island Biologicals) supplemental with 2 mm glutamine and antibiotics. The cell concentration of each preparation was determined by a Coulter counter and adjusted to 5×10^6 cells/ml with RPMI medium.
Microtiter assays were carried out in 0.2 ml incubations, containing 5×10^5 cells and Con A or Con A and compounds at the indicated concentrations. All assays were performed with 6 replicates and compared with a blank assay containing only cells. The assay plates were incubated at 37° in 5% CO2 for 4 days. During the final 18-20 hours of incubation, […] of ^3 HTdR (10 μCi/ml, 6 Ci /m mole) were added to each culture. The cultures were harvested with a multiple automatic sample harvester (MASH) unit and the incorporated ^3 HTdR determined with a Beckman LS 8000 liquid scintillation counter, as a measure of cell proliferation. The results are tabulated as the ratio of the activity in the Con A or Con A and compound treated cultures to the blank cultures. […]

CCCCCC[C@H]([C@H](C)O)n1cnc2c(=O)[nH]cnc21 (relative stereo) [NPT 15410]
% Inhibition of Hemadsorption Foci ([1]; Conc. 10-100 μg/ml): 96% | % Inhibition of Hemadsorption Foci ([1]; Conc. <10 μg/ml, listed as 15410): 58% | % Inhibition of Hemadsorption Foci ([1]; Conc. >100 μg/ml): 96% | Maximum Percent Change, Mitogen Induced (PHA) Human Lymph. Prolif. ([2]; 1.0-10): 60% | Maximum Percent Change, Mitogen Induced (PHA) Human Lymph. Prolif. ([2]; .01-1.0): 30-50% | % Inhibition ([3]; 0.1-1.0 μg/ml, listed as 15410): 50-70% | % Inhibition ([3]; 1.0-10 μg/ml): 30-50% | DIP.PAcBA potentiation of Anti-Influenza activity [4]: does not potentiate the anti-influenza activity; also recorded: Both are equally active | augmentation of Con A stimulation [5]: marked ability to augment the Con A stimulation

CCCCCCC(CO)n1cnc2c(=O)[nH]cnc21 (centres unmarked) [NPT 15417]
inhibition ([1]; Conc. 10-100 μg/ml): 58% | Maximum Percent Change, Mitogen Induced (PHA) Human Lymph. Prolif. ([2]; 1.0-10): 0% | Maximum Percent Change, Mitogen Induced (PHA) Human Lymph. Prolif. ([2]; 10-100): -50% | Maximum Percent Change, Mitogen Induced (PHA) Human Lymph. Prolif. ([2]; .01-1.0): 0% | % Inhibition ([3]; 10-100 μg/ml): > 70% | anti-influenza activity by themselves [4]: significant anti-influenza activity | number of different strains of influenza virus inhibited [4]: at least 4 different strains

CCCCCC[C@H]([C@H](C)O)n1cnc2c(=O)[nH]cnc21 (relative stereo) [NPT 15392, Erythro-9-(2-Hydroxy-3-Nonyl)Hypoxanthine]
% Inhibition of Hemadsorption Foci ([1]; Conc. <10 μg/ml, listed as 15392): 86% | inhibition ([1]; Conc. 10-100 μg/ml): 100% | % Inhibition ([3]; 0.1-1.0 μg/ml, listed as 15392): 30-50% | % Inhibition ([3]; 10-100 μg/ml): > 70% | % Inhibition ([3]; >100 μg/ml): > 70% | anti-influenza activity by themselves [4]: significant anti-influenza activity | number of different strains of influenza virus inhibited [4]: at least 4 different strains | augmentation of Con A stimulation [5]: marked ability to augment the Con A stimulation

CCCCCCC(CO)n1cnc2c(=O)[nH]cnc21 (centres unmarked) [NPT 15418]
% Inhibition of Hemadsorption Foci ([1]; Conc. 10-100 μg/ml): 46% | % Inhibition of Hemadsorption Foci ([1]; Conc. <10 μg/ml): 16% | % Inhibition of Hemadsorption Foci ([1]; Conc. >100 μg/ml): 52% | % Inhibition ([3]; >100 μg/ml): > 70% | DIP.PAcBA potentiation of Anti-Influenza activity [4]: does potentiate the anti-influenza activity and Yes
